How the values were obtained:
Assay type in all cases: in vivo
[1] = tested on: common cutworm (Spodoptera Litura); test: Insecticidal effect on common cutworm (Test Example 2); details: common cutworm second-instar larvae; cabbage leaf immersed, 500 ppm; eight days after inoculation; 25° C.
In short: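 2nd-instar larvae on air-dried treatment, closed dish, 25° C; dead/alive counted at day 8. Mortality calculated, graded by criterion. 3 × 10 insects.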

[2] = tested on: rice leafroller (Cnaphalocrocis medinalis); test: Insecticidal effect on rice leafroller (Test Example 3); details: rice leafroller third-instar larvae; rice lamina immersed, 500 ppm; four days after inoculation; 25° C., humidity 70%
In short: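 Insecticidal effect is judged by a predefined criterion from dead/alive counts four days after infesting air-dried lamina with third-instar larvae, kept on moistened filter paper at 25° C, 70% humidity.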

[3] = tested on: diamondback moth (Plutella xylostella); test: Insecticidal effect on diamondback moth (Test Example 1); details: diamondback moth; mortality judged by criterion of Test Example 1
In short: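 Oviposition by adults on Chinese cabbage seedling; immersion; air-dry; 25° C room. Count of hatched larvae at day 6 post-immersion → mortality → effect graded by criterion. Triplicate, 10 insects/group.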

## Cc1cc(C(F)(C(F)(F)F)C(F)(F)F)ccc1NC(=O)c1cccc(Cl)c1C(=O)NC(C)(C)C [compound 1038]
[1]
  Insecticidal effect, Test Example 2: A (100)
[2]
  Insecticidal effect, Test Example 3: A (100)
[3]
  Insecticidal effect, Test Example 1: A (100)

## Cc1cc(C(F)(C(F)(F)F)C(F)(F)F)ccc1NC(=O)c1cccc(I)c1C(=O)NC(C)(C)C [compound 1039]
[1]
  Insecticidal effect, Test Example 2: A (100)
[2]
  Insecticidal effect, Test Example 3: A (100)
[3]
  Insecticidal effect, Test Example 1: A (100)

## Cc1cc(C(F)(F)C(F)(F)F)ccc1NC(=O)c1cccc(I)c1C(=O)NCC(F)(F)F [compound 1040]
[1]
  Insecticidal effect, Test Example 2: A (100)
[2]
  Insecticidal effect, Test Example 3: A (100)
[3]
  Insecticidal effect, Test Example 1: A (100)

## Cc1cc(C(F)(F)C(F)(F)F)ccc1NC(=O)c1c(I)cccc1C(=O)NCC(F)(F)F [compound 1041]
[1]
  Insecticidal effect, Test Example 2: A (100)
[2]
  Insecticidal effect, Test Example 3: A (100)
[3]
  Insecticidal effect, Test Example 1: A (100)

## Cc1cc(C(F)(F)C(F)(F)F)ccc1NC(=O)c1cccc(I)c1C(=O)N(C)C(C)C [compound 1042]
[1]
  Insecticidal effect, Test Example 2: A (100)
[2]
  Insecticidal effect, Test Example 3: A (100)
[3]
  Insecticidal effect, Test Example 1: A (100)

## CCCN(CCC)C(=O)c1c(I)cccc1C(=O)Nc1ccc(C(F)(F)C(F)(F)F)cc1C [compound 1044]
[1]
  Insecticidal effect, Test Example 2: A (100)
[2]
  Insecticidal effect, Test Example 3: A (100)
[3]
  Insecticidal effect, Test Example 1: A (100)

## C=CCN(CC=C)C(=O)c1c(I)cccc1C(=O)Nc1ccc(C(F)(F)C(F)(F)F)cc1C [compound 1045]
[1]
  Insecticidal effect, Test Example 2: A (100)
[2]
  Insecticidal effect, Test Example 3: A (100)
[3]
  Insecticidal effect, Test Example 1: A (100)

## CCOCCN(CCOCC)C(=O)c1c(I)cccc1C(=O)Nc1ccc(C(F)(F)C(F)(F)F)cc1C [compound 1046]
[1]
  Insecticidal effect, Test Example 2: A (100)
[2]
  Insecticidal effect, Test Example 3: A (100)
[3]
  Insecticidal effect, Test Example 1: A (100)

## Cc1cc(OC(F)(F)Br)ccc1NC(=O)c1ccccc1C(=O)NC(C)(C)C [compound 1049]
[1]
  Insecticidal effect, Test Example 2: A (100)
[2]
  Insecticidal effect, Test Example 3: A (100)
[3]
  Insecticidal effect, Test Example 1: A (100)

## Cc1cc(OC(F)(F)Br)ccc1NC(=O)c1cccc(Cl)c1C(=O)NC(C)(C)C [compound 1050]
[1]
  Insecticidal effect, Test Example 2: A (100)
[2]
  Insecticidal effect, Test Example 3: A (100)
[3]
  Insecticidal effect, Test Example 1: A (100)

## Cc1cc(OC(F)(F)Br)ccc1NC(=O)c1cccc(I)c1C(=O)NC(C)(C)C [compound 1051]
[1]
  Insecticidal effect, Test Example 2: A (100)
[2]
  Insecticidal effect, Test Example 3: A (100)
[3]
  Insecticidal effect, Test Example 1: A (100)

## CC(C)(C)NC(=O)c1c(Cl)cccc1C(=O)Nc1ccc(C(O)(C(F)(F)F)C(F)(F)F)cc1 [compound 1053]
[1]
  Insecticidal effect, Test Example 2: A (100)
[2]
  Insecticidal effect, Test Example 3: A (100)
[3]
  Insecticidal effect, Test Example 1: A (100)

## CC(C)(C)NC(=O)c1c(I)cccc1C(=O)Nc1ccc(C(O)(C(F)(F)F)C(F)(F)F)cc1 [compound 1054]
[1]
  Insecticidal effect, Test Example 2: A (100)
[2]
  Insecticidal effect, Test Example 3: A (100)
[3]
  Insecticidal effect, Test Example 1: A (100)

## CC(C)NC(=O)c1c(I)cccc1C(=O)Nc1ccc(F)cc1F [compound 1055]
[1]
  Insecticidal effect, Test Example 2: A (100)
[2]
  Insecticidal effect, Test Example 3: A (100)
[3]
  Insecticidal effect, Test Example 1: A (100)

## CCNC(=O)c1c(I)cccc1C(=O)Nc1ccc(OC(F)(F)C(F)F)cc1C [compound 1056]
[1]
  Insecticidal effect, Test Example 2: A (100)
[2]
  Insecticidal effect, Test Example 3: A (100)
[3]
  Insecticidal effect, Test Example 1: A (100)

## CCCNC(=O)c1c(I)cccc1C(=O)Nc1ccc(OC(F)(F)C(F)F)cc1C [compound 1058]
[1]
  Insecticidal effect, Test Example 2: A (100)
[2]
  Insecticidal effect, Test Example 3: A (100)
[3]
  Insecticidal effect, Test Example 1: A (100)

## Cc1cc(OC(F)(F)C(F)F)ccc1NC(=O)c1ccccc1C(=O)NC(C)(C)C [compound 1060]
[1]
  Insecticidal effect, Test Example 2: A (100)
[2]
  Insecticidal effect, Test Example 3: A (100)
[3]
  Insecticidal effect, Test Example 1: A (100)

## Cc1cc(OC(F)(F)C(F)F)ccc1NC(=O)c1cccc(Cl)c1C(=O)NC(C)(C)C [compound 1061]
[1]
  Insecticidal effect, Test Example 2: A (100)
[2]
  Insecticidal effect, Test Example 3: A (100)
[3]
  Insecticidal effect, Test Example 1: A (100)

## Cc1cc(OC(F)(F)C(F)F)ccc1NC(=O)c1cccc(I)c1C(=O)NC(C)(C)C [compound 1062]
[1]
  Insecticidal effect, Test Example 2: A (100)
[2]
  Insecticidal effect, Test Example 3: A (100)
[3]
  Insecticidal effect, Test Example 1: A (100)

## CC(C)(C)NC(=O)c1c(Cl)cccc1C(=O)Nc1ccc2c(c1)OC(F)(F)C(F)(F)O2 [compound 1066]
[1]
  Insecticidal effect, Test Example 2: C (89-80)
[2]
  Insecticidal effect, Test Example 3: A (100)
[3]
  Insecticidal effect, Test Example 1: A (100)

## CC(C)(C)NC(=O)c1c(I)cccc1C(=O)Nc1ccc2c(c1)OC(F)(F)C(F)(F)O2 [compound 1067]
[1]
  Insecticidal effect, Test Example 2: A (100)
[2]
  Insecticidal effect, Test Example 3: A (100)
[3]
  Insecticidal effect, Test Example 1: A (100)

## Cc1cc(C(F)(F)C(F)(F)F)ccc1NC(=O)c1cccc(I)c1C(=O)N(C)C [compound 1068]
[1]
  Insecticidal effect, Test Example 2: A (100)
[2]
  Insecticidal effect, Test Example 3: A (100)
[3]
  Insecticidal effect, Test Example 1: A (100)

## CCCN(C)C(=O)c1c(I)cccc1C(=O)Nc1ccc(C(F)(F)C(F)(F)F)cc1C [compound 1069]
[1]
  Insecticidal effect, Test Example 2: A (100)
[2]
  Insecticidal effect, Test Example 3: A (100)
[3]
  Insecticidal effect, Test Example 1: A (100)

## Cc1cc(C(F)(F)C(F)(F)F)ccc1NC(=O)c1cccc(I)c1C(=O)N1CCOCC1 [compound 1070]
[1]
  Insecticidal effect, Test Example 2: A (100)
[2]
  Insecticidal effect, Test Example 3: A (100)
[3]
  Insecticidal effect, Test Example 1: A (100)

## Cc1cc(C(F)(F)C(F)(F)F)ccc1NC(=O)c1ccccc1C(=O)N(C(C)C)C(C)C [compound 1071]
[1]
  Insecticidal effect, Test Example 2: C (89-80)
[2]
  Insecticidal effect, Test Example 3: A (100)
[3]
  Insecticidal effect, Test Example 1: A (100)

## CCNC(=O)c1c(I)cccc1C(=O)Nc1ccc(C(F)(C(F)(F)F)C(F)(F)F)cc1C [compound 1073]
[1]
  Insecticidal effect, Test Example 2: A (100)
[2]
  Insecticidal effect, Test Example 3: A (100)
[3]
  Insecticidal effect, Test Example 1: A (100)

## CCNC(=O)c1cccc(I)c1C(=O)Nc1ccc(C(F)(C(F)(F)F)C(F)(F)F)cc1C [compound 1074]
[1]
  Insecticidal effect, Test Example 2: A (100)
[2]
  Insecticidal effect, Test Example 3: A (100)
[3]
  Insecticidal effect, Test Example 1: A (100)

## CCCNC(=O)c1c(I)cccc1C(=O)Nc1ccc(C(F)(C(F)(F)F)C(F)(F)F)cc1C [compound 1075]
[1]
  Insecticidal effect, Test Example 2: A (100)
[2]
  Insecticidal effect, Test Example 3: A (100)
[3]
  Insecticidal effect, Test Example 1: A (100)

## CC(C)NC(=O)c1c(Cl)cccc1C(=O)Nc1ccc(S(=O)(=O)C(F)(F)F)cc1 [compound 1078]
[1]
  Insecticidal effect, Test Example 2: A (100)
[2]
  Insecticidal effect, Test Example 3: A (100)
[3]
  Insecticidal effect, Test Example 1: A (100)

## CC(C)NC(=O)c1c(I)cccc1C(=O)Nc1ccc(S(=O)(=O)C(F)(F)F)cc1 [compound 1079]
[1]
  Insecticidal effect, Test Example 2: A (100)
[2]
  Insecticidal effect, Test Example 3: A (100)
[3]
  Insecticidal effect, Test Example 1: A (100)

## CC(C)(C)NC(=O)c1c(I)cccc1C(=O)Nc1ccc(S(=O)(=O)C(F)(F)F)cc1 [compound 1080]
[1]
  Insecticidal effect, Test Example 2: A (100)
[2]
  Insecticidal effect, Test Example 3: A (100)
[3]
  Insecticidal effect, Test Example 1: A (100)

## Cc1cc(C(F)(F)C(F)(F)F)ccc1NC(=O)c1cccc(I)c1C(=O)N(C(C)C)C(C)C [compound 1081]
[1]
  Insecticidal effect, Test Example 2: A (100)
[2]
  Insecticidal effect, Test Example 3: A (100)
[3]
  Insecticidal effect, Test Example 1: A (100)

## Cc1cc(OC(F)(F)C(F)(F)c2ccccc2)ccc1NC(=O)c1cccc(Cl)c1C(=O)NC(C)C [compound 1087]
[1]
  Insecticidal effect, Test Example 2: A (100)
[2]
  Insecticidal effect, Test Example 3: A (100)
[3]
  Insecticidal effect, Test Example 1: A (100)

## CC(C)NC(=O)c1c(C(=O)Nc2ccc3c(c2)OC(F)(F)O3)cccc1[N+](=O)[O-] [compound 1100]
[1]
  Insecticidal effect, Test Example 2: C (89-80)
[2]
  Insecticidal effect, Test Example 3: A (100)
[3]
  Insecticidal effect, Test Example 1: A (100)

From patent publication US6362369B1, “Phthalic acid diamide derivatives fluorine-containing aniline compounds as starting material, agricultural and horticultural insecticides, and a method for application of the insecticides” (Nihon Nohyaku Co., Ltd., priority 1997, dated 2002)
